Results taken from ChEMBL document CHEMBL5154879, “Induction of Genes Implicated in Stress Response and Autophagy by a Novel Quinolin-8-yl-nicotinamide QN523 in Pancreatic Cancer” (J Med Chem, 2022).
Activity calls are given as the source filed them. No cut-off for these calls is given here.

Tests used:
Hep 3B2 = experiment: Antiproliferative activity against human Hep3B cells assessed as inhibition of cell growth incubated for 72 hrs by MTT assay; format: functional, cell-based
MIA PaCa-2 [1] = experiment: Induction of ER stress pathway in human MIA PaCa-2 cells by ingenuity pathway analysis; format: functional, cell-based
[2] = Toxicity in NOD/SCID mouse xenografted with human MIA PaCa-2 cells assessed as weakness at 10 to 20 mg/kg, ip administered five times a week for 44 days; format: organism-based; conditions: in vivo, 1056 h, dose 10-20 mg/kg, time 44 day
MIA PaCa-2 [3] = experiment: Induction of apoptosis in human MIA PaCa-2 cells assessed as viable cells at 0.1 uM incubated for 24 hrs by Annexin V-FITC/PI staining based flow cytometry analysis (reference value: 90.2%); format: functional; conditions: read-out: Activity
[4] = Toxicity in NOD/SCID mouse xenografted with human MIA PaCa- 2 cells assessed as morphological changes in heart at 10 to 20 mg/kg, ip administered five times a week for 44 days by H and E staining based inverted microscopic analysis; format: organism-based; conditions: in vivo, 1056 h, dose 10-20 mg/kg, time 44 day
[5] = Upregulation of HSPA5 gene expression in human MIA PaCa-2 cells assessed as fold change in HSPA5 expression at 1 uM incubated for 24 hrs by Bru-seq analysis relative to control; format: functional
MIA PaCa-2 [6] = experiment: Induction of cell cycle arrest in human MIA PaCa-2 cells assessed as accumulation of cells in G0/G1 phase at 0.5 uM incubated for 24 hrs by RNase/propidium iodide staining based flow cytometry analysis (reference value: 64.3%); format: functional
MIA PaCa-2 [7] = experiment: Inhibition of colony formation in human MIA PaCa-2 cells at 0.1 to 1 uM incubated for 10 to 14 days by crystal violet staining based assay; format: functional, cell-based; conditions: dose 0.1-1 µM, time 10-14 day
[8] = Downregulation of H2AFX gene expression in human MIA PaCa-2 cells assessed as fold change in H2AFX expression at 1 uM incubated for 24 hrs by Bru-seq analysis relative to control; format: functional
MIA PaCa-2 [9] = experiment: Induction of cell cycle arrest in human MIA PaCa-2 cells assessed as accumulation of cells in G0/G1 phase at 0.1 uM incubated for 48 hrs by RNase/propidium iodide staining based flow cytometry analysis (reference value: 70.4%); format: functional
[10] = Upregulation of SERPINB8 gene expression in human MIA PaCa-2 cells assessed as fold change in SERPINB8 expression at 1 uM incubated for 24 hrs by Bru-seq analysis relative to control; format: functional
MIA PaCa-2 [11] = experiment: Induction of autophagy in human MIA PaCa-2 cells assessed as accumulation of GABARAPL1 marker gene expression at upto 2 uM incubated for 72 hrs by Western blot analysis; format: functional, cell-based
MIA PaCa-2 [12] = experiment: Upregulation of MTOR signalling in human MIA PaCa-2 cells by gene set enrichment analysis; format: functional, cell-based
MIA PaCa-2 [13] = experiment: Induction of cell cycle arrest in human MIA PaCa-2 cells assessed as accumulation of cells in G2/M phase at 0.1 uM incubated for 48 hrs by RNase/propidium iodide staining based flow cytometry analysis (reference value: 2.71%); format: functional
MIA PaCa-2 [14] = experiment: Upregulation of stress response gene expression in human MIA PaCa-2 cells; format: functional, cell-based
[15] = Upregulation of SAT1 gene expression in human MIA PaCa-2 cells assessed as fold change in SAT1 expression at 1 uM incubated for 24 hrs by Bru-seq analysis relative to control; format: functional
MIA PaCa-2 [16] = experiment: Upregulation of HSPA5 gene expression in human MIA PaCa-2 cells incubated for 72 hrs by Western blot analysis; format: functional, cell-based; conditions: DDE = dose-dependent effect
MIA PaCa-2 [17] = experiment: Antitumor activity against human MIA PaCa-2 cells xenografted in NOD/SCID mouse assessed as tumor growth delay at 30 mg/kg, ip administered five times a week starting from day 44 to 51 post first dose; format: functional, organism-based; conditions: time 51.0 day
[18] = Toxicity in NOD/SCID mouse xenografted with human MIA PaCa- 2 cells assessed as morphological changes in kidney at 10 to 20 mg/kg, ip administered five times a week for 44 days by H and E staining based inverted microscopic analysis; format: organism-based; conditions: in vivo, 1056 h, dose 10-20 mg/kg, time 44 day
[19] = Toxicity in NOD/SCID mouse xenografted with human MIA PaCa-2 cells assessed as lethargy at 10 to 20 mg/kg, ip administered five times a week for 44 days; format: organism-based; conditions: in vivo, 1056 h, dose 10-20 mg/kg, time 44 day
[20] = Downregulation of INCENP gene expression in human MIA PaCa-2 cells assessed as fold change in INCENP expression at 1 uM incubated for 24 hrs by Bru-seq analysis relative to control; format: functional
[21] = Downregulation of LAMA5 gene expression in human MIA PaCa-2 cells assessed as fold change in LAMA5 expression at 1 uM incubated for 24 hrs by Bru-seq analysis relative to control; format: functional
MIA PaCa-2 [22] = experiment: Induction of apoptosis in human MIA PaCa-2 cells assessed as late apoptotic cells at 0.5 uM incubated for 48 hrs by Annexin V-FITC/PI staining based flow cytometry analysis (reference value: 0.8%); format: functional
MIA PaCa-2 [23] = experiment: Induction of apoptosis in human MIA PaCa-2 cells assessed as live cells at 0.5 uM incubated for 24 hrs by Annexin V-FITC/PI staining based flow cytometry analysis (reference value: 90.2%); format: functional
[24] = Upregulation of SESN2 gene expression in human MIA PaCa-2 cells assessed as fold change in SESN2 expression at 1 uM incubated for 24 hrs by Bru-seq analysis relative to control; format: functional
MIA PaCa-2 [25] = experiment: Synergistic autophagy activity in human MIA PaCa-2 cells assessed as inhibition of colony formation at 0.001 to 0.1 uM incubated for 7 days in presence of autophagy inhibitor chloroquine by crystal violet staining based assay; format: functional, cell-based; conditions: dose 0.001-0.1 µM, time 7.0 day
[26] = Downregulation of CCDC85C gene expression in human MIA PaCa-2 cells assessed as fold change in CCDC85C expression at 1 uM incubated for 24 hrs by Bru-seq analysis relative to control; format: functional
MIA PaCa-2 [27] = experiment: Antitumor activity against human MIA PaCa-2 cells xenografted in NOD/SCID mouse assessed as tumor growth inhibition at 20 mg/kg, ip administered five times a week starting from day 10 to 44 and measured from day 17 relative to control; format: functional; conditions: MIA PaCa-2, 816 h, time 34 day, read-out: TGI
SNU-449 = experiment: Antiproliferative activity against human SNU-449 cells assessed as inhibition of cell growth incubated for 72 hrs by MTT assay; format: functional, cell-based; conditions: SNU-449, 72 h
MIA PaCa-2 [28] = experiment: Upregulation of P53 pathway in human MIA PaCa-2 cells by gene set enrichment analysis; format: functional, cell-based
MIA PaCa-2 [29] = experiment: Induction of UPR pathway in human MIA PaCa-2 cells by ingenuity pathway analysis; format: functional, cell-based
MIA PaCa-2 [30] = experiment: Downregulation of chromosomal proteins expression in human MIA PaCa-2 cells; format: functional, cell-based
[31] = Upregulation of OSGIN1 gene expression in human MIA PaCa-2 cells assessed as fold change in OSGIN1 expression at 1 uM incubated for 24 hrs by Bru-seq analysis relative to control; format: functional
MIA PaCa-2 [32] = experiment: Induction of apoptosis in human MIA PaCa-2 cells assessed as early apoptotic cells at 0.5 uM incubated for 24 hrs by Annexin V-FITC/PI staining based flow cytometry analysis (reference value: 5.1%); format: functional

With `O=C(Nc1cccc2cccnc12)c1cnccn1` the IC50 (Hep 3B2) was 210 nM, the Activity (MIA PaCa-2 [1]) was “Active” and the Activity [2] was “Non-Toxic”. The viability at 0.1 µM (MIA PaCa-2 [3]) was 84.9%, the Activity [4] was “Non-Toxic” and the “fold change (FC)” value [5] was 8.8. The Activity (MIA PaCa-2 [6]) was 44.5%, the inhibition (MIA PaCa-2 [7]) was “Active” and the “fold change (FC)” value [8] was 0.35. The Activity (MIA PaCa-2 [9]) was 62.4%, the “fold change (FC)” value [10] was 5.3 and the Activity (MIA PaCa-2 [11]) was “Active”. For the same compound, the Activity (MIA PaCa-2 [12]) was “Active”, the Activity (MIA PaCa-2 [13]) was 8.22% and the Activity (MIA PaCa-2 [14]) was “Active”. The “fold change (FC)” value [15] was 7, the Activity (MIA PaCa-2 [16]) was “Dde” and the Activity (MIA PaCa-2 [17]) was “Active”. The Activity [18] was “Non-Toxic”, the Activity [19] was “Non-Toxic” and the “fold change (FC)” value [20] was 0.46. The “fold change (FC)” value [21] was 0.42, the Activity (MIA PaCa-2 [22]) was 1.8% and the Activity (MIA PaCa-2 [23]) was 86.2%. For the same compound, the “fold change (FC)” value [24] was 5.4, the Activity (MIA PaCa-2 [25]) was “Active” and the “fold change (FC)” value [26] was 0.42. For the same compound, the inhibition in vivo at 20 mg/kg (MIA PaCa-2 [27]) was 80%, the IC50 (SNU-449) was 400 nM and the Activity (MIA PaCa-2 [28]) was “Active”. The Activity (MIA PaCa-2 [29]) was “Active”, the Activity (MIA PaCa-2 [30]) was “Active” and the “fold change (FC)” value [31] was 7.8. It also gave an Activity (MIA PaCa-2 [32]) of 10.1%.
